Measurements: patent US10300226B2, “Rescue inhaler” (priority 2015, dated 2019)
Several values for one entry are separate records, joined by “and”; a condition that tells them apart may be missing. Equal entries are not always repeated.

Tests used:
[1] = cited from earlier work; for density: 25 degrees Celsius (dry air: no temperature given); for gas density: standard temperature and atmospheric pressure, gram molecular weight/22.4
[2] = density of reference gases and prior-art heliox; assay type: physicochemical

N#N [Example N2, nitrogen]
density [1]: 1.2506 kg/m^3
gas density [1]: 1.25 g/L

[He] [Helium]
density [1]: 0.1787 kg/m^3
gas density [1]: 0.1785 g/L and 0.178 g/L

O=O [oxygen]
density [1]: 1.429 kg/m^3
gas density [1]: 1.428 g/L
density of oxygen ([2]; 24 degree Celsius and 742 torr, d=molar mass x p/RT): 1.28 g/L
density of oxygen (D=P/RT) ([2]; T 273K, P 130000): 1.79 g/L
